The values that follow come from patent US4241052A, “Novel nitrosourea compounds and process for preparing the same” (Tanabe Seiyaku Co., Ltd., priority 1978, dated 1980).

One data set has as its system leukemic cells. The settings on record: Japanese Patent Publication No. 141815/1976; cited from earlier work.
The subject of data set [1] is Ehrlich ascites carcinoma. As to the kind of experiment: Preventive effect against the growth of Ehrlich ascites carcinoma (Method A). It is filed as in vivo, mice (ICR, female). On the procedure: (A) Preventive effect against the growth of Ehrlich ascites tumor
10^6 tumor cells of Ehrlich ascites carcinoma were inoculated intraperitoneally into a group of five femal mice (ICR mice, body weight: 19-23 g). A test compound was dissolved in a physiological saline solution and administered intraperitoneally to the mice. The administration of the test compound was began 24 hours after the inoculation of the tumor cells and performed once a day for 5 days. The volume of ascites in the treated mice were measured after 7 days of the experiment.

For data set [2], the system named is tumor cells of lymphoid leukemia L-1210. As to conditions: tumor cells implanted intraperitoneally; U.S. Pat. No. 4086451 and Japanese publications; cited from earlier work.

Regarding `O=NN(CCCl)C(=O)NC1O[C@H](CO)[C@@H](O[C@@H]2O[C@H](CO)[C@H](O)[C@H](O)[C@H]2O)[C@H](O)[C@H]1O` (stereo partly drawn) [1-(2-chloroethyl)-1-nitroso-3-(D-lactosyl)urea], the “anti-tumor activity against leukemic cells” value in the data set with leukemic cells was “show anti-tumor activity”.
Turning to `O=NN(CCCl)C(=O)NC1O[C@H](CO)[C@@H](O[C@H]2O[C@H](CO)[C@@H](O)[C@H](O)[C@H]2O)[C@H](O)[C@H]1O` (stereo partly drawn) [1-(2-chloroethyl)-1-nitroso-3-(D-maltosyl)urea], the “anti-tumor activity against leukemic cells” value with leukemic cells is given as “show anti-tumor activity”.
`O=NN(CCCl)C(=O)N[C@@H]1O[C@H](CO)[C@@H](O)[C@H](O)[C@H]1O` [GANU, 1-(2-chloroethyl)-1-nitroso-3-(D-glucopyranosyl)urea, reference compound]: the Inhibition ratio in data set [1] (0.09 mg/kg/day i.p., 5 days) worked out at 4.2%; in data set [1] (0.19 mg/kg/day i.p., 5 days), 79.2%; in data set [1] (0.39 mg/kg/day i.p., 5 days), 100%; in data set [1] (0.78 mg/kg/day i.p., 5 days), 100%; in data set [1] (3.12 mg/kg/day i.p., 5 days), 100%. In addition, the “Toxic (number of mice died/number of mice used)” value in data set [1] (25 mg/kg/day i.p., 5 days) was 5/5. Also, in data set [1] (MTD/MED), the “Therapeutic index (MTD/MED)” value is 32. In addition, the minimal effective dose in data set [1] (Mus musculus, Ehrlich, ip, 168 h, min dose, 100% inhibition, doses of the table in mg/kg/day, read-out: MED (Minimum Effective Dose)) stood at 0.39 mg/kg/day. In addition, the “MTD (Maximum Tolerated Dose)” value in data set [1] (max dose, 100% inhibition without death, doses of the table in mg/kg/day, 10080 min) is listed as 12.5. Also, the “life span of mice implanted with L-1210” value in data set [2] was “increase the life span”.
